Laboratory results: patent US20240041042A1, “1-(PYRIDYL)-5-AZINYLPYRAZOLE DERIVATIVES, AND THEIR USE FOR CONTROL OF UNDESIRED PLANT GROWTH” (Bayer Aktiengesellschaft, priority 2020, published 2024)
Like-named read-outs stand apart in the source and are kept apart here.

Experiments:
Format in all cases: in vivo
[1] = test system: Abutilon theophrasti (ABUTH); test: Post-emergence herbicidal action against ABUTH; conditions: 80 g/ha, visual rating about 3 weeks after treatment vs untreated controls (100% = plants have died, 0% = like control plants)
Procedure, shortened: (§1)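 Greenhouse plants sprayed at the one-leaf stage, 2–3 weeks after sowing, with WP or EC formulations plus 0.5% additive at 600 l/ha water. Activity rated visually after about 3 weeks versus untreated controls (100% = dead, 0% = like control), at 320 g/ha or lower.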

[2] = test system: Amaranthus retroflexus (AMARE); test: Post-emergence herbicidal action against AMARE
Procedure, shortened: as §1

[3] = test system: Setaria viridis (SETVI); test: Pre-emergence herbicidal action against SETVI; conditions: dosage 320 g/ha
Procedure, shortened: (§2)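 Application rates ran to 320 g/ha or lower, with several dosages tested on the same weeds. The compound, as wettable powder or emulsion concentrate, is sprayed pre-emergence onto soil over sown seeds; greenhouse growth follows, and effect is rated visually after roughly 3 weeks.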

[4] = test system: Glycine max (GLXMA); conditions: pre-emergence, 80 g/ha, crop plant compatibility, in comparison to untreated controls
Procedure, shortened: (§3)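 Crop injury rated visually in percent against untreated plants roughly 3 weeks after treatment (0% no effect, 100% plants dead). Compounds, as WP or EC with 0.5% additive in 600 l/ha water, were applied to the covering soil right after sowing; greenhouse growth. Suffixes a, b, c denote different dosages.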

[5] = test system: Zea mays (ZEAMX); conditions: pre-emergence, crop plant compatibility, in comparison to untreated controls
Procedure, shortened: as §3

[6] = test system: Oryza sativa (ORYSA); conditions: pre-emergence, crop plant compatibility, in comparison to untreated controls
Procedure, shortened: as §3

[7] = test system: Triticum aestivum (TRZAS); conditions: pre-emergence, crop plant compatibility, in comparison to untreated controls
Procedure, shortened: as §3

[8] = test system: Oryza sativa (ORYSA); conditions: crop plant compatibility
Procedure, shortened: (§4)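 Foliar application at the one-leaf stage: WP/EC formulation, 0.5% additive, 600 l/ha water. Greenhouse-grown in sandy loam. Endpoint is visual % injury relative to untreated controls at about 3 weeks.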

[9] = test system: Triticum aestivum (TRZAS); conditions: crop plant compatibility, effect vs untreated controls
Procedure, shortened: as §4

[10] = test system: Viola tricolor (VIOTR); test: Pre-emergence herbicidal action against VIOTR; conditions: 320 g/ha, Viola tricolor
Procedure, shortened: as §2

[11] = test system: Alopecurus myosuroides (ALOMY); test: Pre-emergence herbicidal action against ALOMY; conditions: 320 g/ha; scored visually after about 3 weeks; 100% = plants have died
Procedure, shortened: as §2

[12] = test system: Zea mays (ZEAMX); conditions: for Post-emergence action against ZEAMX in %: crop plant compatibility, effect vs untreated controls
Procedure, shortened: as §4

[13] = test system: Viola tricolor (VIOTR); test: Post-emergence herbicidal action against VIOTR; conditions: 320 g/ha
Procedure, shortened: as §1

[14] = test system: Amaranthus retroflexus (AMARE); test: Pre-emergence herbicidal action against AMARE; conditions: 320 g/ha, visual scoring after about 3 weeks vs untreated controls
Procedure, shortened: as §2

[15] = 80 g/ha, visual rating about 3 weeks after treatment vs untreated controls (100% = plants have died, 0% = like control plants)
[16] = 20 g/ha, effect vs untreated controls
[17] = 80 g/ha, effect in comparison to untreated controls
[18] = 320 g/ha, visual rating about 3 weeks after treatment
[19] = 320 g/ha, effect in comparison to untreated controls

Pre-emergence action against GLXMA in % [4]	Pre-emergence action against ZEAMX in % ([5]; 80 g/ha)	Pre-emergence action against ZEAMX in % ([5]; 320 g/ha)	Pre-emergence action against ORYSA in % ([6]; 80 g/ha)	Pre-emergence action against ORYSA in % ([6]; 320 g/ha)	Pre-emergence action against TRZAS in % ([7]; 80 g/ha)	Post-emergence action against ORYSA in % [8, 16]	Post-emergence action against ORYSA in % [8, 17]	Post-emergence action against TRZAS in % ([9]; 20 g/ha)	Post-emergence action against TRZAS in % ([9]; 80 g/ha)	Pre-emergence action against TRZAS in % ([7]; 320 g/ha)	Post-emergence action against ZEAMX in % ([12]; 80 g/ha)	Post-emergence action against ZEAMX in % ([12]; 320 g/ha)	Post-emergence action against ORYSA in % [8, 19]	SMILES	Post-emergence action against AMARE in % [2, 15]	Pre-emergence action against SETVI in % [3]	Pre-emergence action against VIOTR in % [10]	Post-emergence action against AMARE in % [2, 18]	also measured
0%	0%	0%	0%	0%	0%	0%	20%	0%	20%	–	–	–	–	CCOC(=O)COc1nn(-c2ccccn2)c(-c2ccc(F)nc2)c1C1CC1 [Example I-78]	80%	80%	80%	–	Post-emergence action against ABUTH in % [1]: 80%; Pre-emergence action against ALOMY [11]: 90%
0%	20%	20%	0%	0%	0%	0%	0%	0%	0%	20%	0%	–	–	COC(=O)[C@H](C)NC(=O)COc1nn(-c2ccnc(Cl)c2)c(-c2ccc(F)nc2)c1Br [III-18]	80%	–	–	–	Post-emergence action against ZEAMX in % (crop plant compatibility) ([12]; 20 g/ha, ZEAMX, effect in comparison to untreated controls): 0%
0%	10%	20%	0%	20%	20%	–	0%	–	–	–	10%	10%	0%	COC(=O)CCOC(=O)COc1nn(-c2ccnc(F)c2)c(-c2ccc(F)nc2)c1Br [III-27]	80%	90%	–	80%	Post-emergence action against VIOTR in % [13]: 80%
20%	0%	0%	0%	0%	0%	–	0%	–	0%	0%	10%	10%	0%	O=C(O)COc1nn(-c2ccncc2)c(-c2ccc(F)nc2)c1Br [III-09]	–	–	80%	80%	Post-emergence action against TRZAS in % ([9]; 320 g/ha): 0%; Pre-emergence action against AMARE in % [14]: 80%
